Legend:
[1] = tested on: adult hippocampus-derived neural progenitor cells; experiment: cell death by live staining with propidium iodide and Hoechst 33342; format: cell-based, rat; conditions: 500 ng/ml IGF-I
Protocol: We first directly measured the effect of IGF-I on cell survival. We asked whether a selective decrease in the death of oligodendrocytes (and/or oligodendrocyte progenitors) could explain the net increase in number of oligodendrocytes (defined by the expression of RIP, a marker of both immature and mature oligodendrocytes). […] To quantify cell death of the progeny of neural progenitor cells, living cultures were stained with propidium iodide (1 μg/ml), which stains dead cells, and Hoechst 33342 (1 μg/ml), which stains live and dead cells. Staining of live, rather than fixed, cultures was used to avoid underestimating cell death due to possible detachment of dying and/or dead cells from culture substrates. […]
Cells were fixed with 4% paraformaldehyde, followed by immunocytochemical staining as described (Palmer et al., 1999). […] Quantification of cell phenotypes was with StereoInvestigator (MicroBrightfield Inc.); for each marker, 500-1000 cells were sampled systematically from standardized fields at 40×magnification. For quantification of live/dead cells, images were taken of cultures live-stained with propidum iodide (1 μg/ml; Molecular Probes) and Hoescht 33342 (1 μg/ml; Sigma) at 10×magnification, and cells were counted using Image-Pro (Media Cybernetics). […]

Noggin = experiment: quantitative real time PCR, Noggin expression; format: cell-based, rat; conditions: 500 ng/ml IGF-I, up to 48 hours, normalized to GAPDH
From the text: (§1) If IGF-I induction of oligodendrocyte differentiation involves the inhibition of BMP signaling, a change in the expression of BMP antagonists after IGF-I treatment might be observed. In addition to extracellular antagonists of BMP signaling, such as Noggin, intracellular proteins that can interfere with downstream BMP receptor signaling, called inhibitory Smads (Smad6, 7), have also been identified (Christian and Nakayama, 1999). Therefore, we performed Q-PCR analyses of cultures treated with IGF-I after various time points (up to 48 hours) and examined the relative fold change (normalized to an internal control; see Methods) of Noggin, Smad6, 7 (FIG. 6, A-C). Expression of Noggin, Smad6, 7 increased by at least 6-, 5-, and 2-fold, respectively, after IGF-I treatment (p<0.05, t-test). There may be an unexplained downregulation of Smad6 at the 48-h time point.
(§2) Total RNA was isolated from cell cultures using RNeasy columns (Qiagen). For real-time quantitative PCR, reactions were carried out essentially as described (Zhao et al., 2001). The relative amount of the tested message was normalized to the level of the internal control message, GAPDH. […] Primer sequences are available upon request.

Smad6 = experiment: quantitative real time PCR, Smad6 expression; format: cell-based, rat; conditions: 500 ng/ml IGF-I, up to 48 hours, normalized to GAPDH
From the text: as §1, §2

Smad7 = experiment: quantitative real time PCR, Smad7 expression; format: cell-based, rat; conditions: 500 ng/ml IGF-I, up to 48 hours, normalized to GAPDH
From the text: as §1, §2

[2] = tested on: oligodendrocytes in the hilus of the adult rat hippocampus; experiment: IGF-I overexpression in vivo in the hippocampus (hilus), immunohistochemistry; conditions: 4 weeks after injection
Protocol: cDNA encoding the human IGF-I gene was cloned into a recombinant AAV vector and the virus was prepared as previously described (Kaspar et al., 2002). Expression of IGF-I and {overscore (β)}gal (control AAV) was first confirmed in human embryonic kidney (HEK-293) cells by RT-PCR and Western analysis and subsequently in the hippocampus by RT-PCR analysis (unpublished data). Recombinant AAV-IGF-I (rAAV-IGF-I) or AAV-{overscore (β)}gal (rAAV-{overscore (β)}gal) was stereotaxically injected into the hippocampus (anteroposterior axis, −4.0 mm; mediolateral axis, +2.0 mm; dorsoventral axis, −3.0 from skull, with nose bar at 3.3 mm up) of anesthetized female Fischer-344 rats (150-175 g; n=6). […]
All comparative analyses were focused on the hilus of the injected side on matched hippocampal sections. For RIP or MBP staining, immunofluorescence average pixel intensity of equivalent sized fields (4 from each animal) in control and experimental groups was determined from digital images using Adobe Photoshop. To quantify the number of oligodendrocytes, sections were immunostained with GST-π. Only immunolabeled cells with a clear DAPI-positive nucleus were scored. For quantification of GST-π cells, area counts of the hilus within the dentate gyrus of the hippocampus were performed. […] The results are expressed as the average number of cells per section.

IGF-I: human recombinant IGF-I (R&D Systems), growth factor polypeptide
percentage of dead/dying cells ([1]; every 12 hours up to 48 h): relatively small percentage of dead/dying cells | change in the percentage of cells that died between time points ([1]; one-way ANOVA): no significant change | relative fold change of Noggin expression (Noggin): at least 6 fold | relative fold change of Smad6 expression (Smad6): ≥ 5 fold | relative fold change of Smad7 expression (Smad7): ≥ 2 fold | GFAP staining vs control animals [2]: no observable difference in GFAP staining

Reference: US20050148069A1, “IGF-1 instructs multipotent adult CNS neural stem cells to an oligodendroglial lineage” (priority 2003, published 2005)
